target: PARP7 (Homo sapiens (Human), UniProt Q7Z3E1); assay: Enzymatic assay for inhibition of PARP7: TR-FRET displacement of biotinylated Probe A from the TIPARP active site; format: binding; details: Table A-1
How it was run: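 Compound dose-response series were incubated with TIPARP and biotinylated Probe A, with a final 30 min step at 25 °C. TR-FRET was read at 320 nm excitation, 615/665 nm emission and 90 μs delay, using the 665/615 ratio to measure complex formation. % inhibition was fitted with a floating or fixed (1) Hill coefficient.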

Sequence of PARP7 (Q7Z3E1 whole entry): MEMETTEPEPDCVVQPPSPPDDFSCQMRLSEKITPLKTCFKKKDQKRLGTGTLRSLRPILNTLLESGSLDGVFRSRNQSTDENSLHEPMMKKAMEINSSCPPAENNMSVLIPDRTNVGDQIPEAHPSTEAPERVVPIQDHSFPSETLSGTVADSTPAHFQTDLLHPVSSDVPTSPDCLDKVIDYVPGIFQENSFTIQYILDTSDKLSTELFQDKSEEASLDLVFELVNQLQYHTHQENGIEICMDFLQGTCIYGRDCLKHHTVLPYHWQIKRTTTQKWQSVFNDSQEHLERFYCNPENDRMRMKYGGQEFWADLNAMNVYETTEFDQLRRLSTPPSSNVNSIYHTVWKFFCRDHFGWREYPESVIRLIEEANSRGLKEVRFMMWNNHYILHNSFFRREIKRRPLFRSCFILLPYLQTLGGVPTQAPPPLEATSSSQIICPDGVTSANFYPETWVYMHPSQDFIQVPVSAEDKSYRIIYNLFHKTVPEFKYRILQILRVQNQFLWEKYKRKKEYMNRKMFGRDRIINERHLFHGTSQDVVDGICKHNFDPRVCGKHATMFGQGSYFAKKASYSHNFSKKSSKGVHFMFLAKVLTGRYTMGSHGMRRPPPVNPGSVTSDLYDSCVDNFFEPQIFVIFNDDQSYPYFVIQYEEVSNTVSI

O=C(c1cncc(OC[C@@H]2c3ccccc3CN2c2cn[nH]c(=O)c2C(F)(F)F)c1)N1CCN(c2ccc(F)cn2)CC1 [Example 386, (5)-5-(1-(((5-(4-(5-Fluoropyridin-2-yl)piperazine-1-carbonyl)pyridin-3-yl)oxy)methyl)isoindolin-2-yl)-4-(trifluoromethyl)pyridazin-3(2H)-one] and N#Cc1cnc(N2CCN(C(=O)c3cncc(OC[C@@H]4c5ccccc5CN4c4cn[nH]c(=O)c4C(F)(F)F)c3)CC2)nc1 [Example 395, (S)-2-(4-(5-((2-(6-Oxo-5-(trifluoromethyl)-1,6-dihydropyridazin-4-yl)isoindolin-1-yl)methoxy)nicotinoyl)piperazin-1-yl)pyrimidine-5-carbonitrile] cannot be ordered by IC50: less than 100 nM for the first, less than 100 nM for the second.

COC[C@@H](COCCC(=O)N1CCN(c2ncc(C(F)(F)F)cn2)CC1)Nc1cn[nH]c(=O)c1C(F)(F)F [Example 559, 5-[[(2S)-1-Methoxy-3-(3-oxo-3-[4-[5-(trifluoromethyl)pyrimidin-2-yl]piperazin-1-yl]propoxy)propan-2-yl]amino]-4-(trifluoromethyl)-2,3-dihydropyridazin-3-one] and O=C(CCOC[C@H](CO)Nc1cn[nH]c(=O)c1C(F)(F)F)N1CCN(c2ncc(C(F)(F)F)cn2)CC1 [Example 603, 5-[[(2S)-1-Hydroxy-3-(3-oxo-3-[4-[5-(trifluoromethyl)pyrimidin-2-yl]piperazin-1-yl]propoxy)propan-2-yl]amino]-4-(trifluoromethyl)-2,3-dihydropyridazin-3-one] cannot be ordered by IC50: less than 100 nM for the first, less than 100 nM for the second.

N#Cc1ccc(N2CCN(C(=O)c3cccc(OC[C@@H]4CCCN4c4cn[nH]c(=O)c4C(F)(F)F)c3)CC2=O)nc1 [Example 34, 6-[2-oxo-4-[(3-[[(2S)-1-[6-oxo-5-(trifluoromethyl)-1,6-dihydropyridazin-4-yl]pyrrolidin-2-yl]methoxy]phenyl)carbonyl]piperazin-1-yl]pyridine-3-carbonitrile] and N#Cc1ccc(NCCC(=O)Nc2cccc(OC[C@@H]3CCCN3c3cn[nH]c(=O)c3C(F)(F)F)c2)nc1 [Example 85, 3-[(5-cyanopyridin-2-yl)amino]-N-(3-[[(2S)-1-[6-oxo-5-(trifluoromethyl)-1,6-dihydropyridazin-4-yl]pyrrolidin-2-yl]methoxy]phenyl)propanamide] cannot be ordered by IC50: less than 100 nM for the first, less than 100 nM for the second.

C[C@@H](COCCC(=O)N1CCN(c2ncc(C#N)s2)CC1)Nc1cn[nH]c(=O)c1C(F)(F)F [Example 680, (S)-2-(4-(3-(2-((6-Oxo-5-(trifluoromethyl)-1,6-dihydropyridazin-4-yl)amino)propoxy)propanoyl)piperazin-1-yl)thiazole-5-carbonitrile] and COC[C@@H](COCCC(=O)N1CCN(c2ncc(C(F)(F)F)s2)CC1)Nc1cn[nH]c(=O)c1C(F)(F)F [Example 712, (S)-5-((1-Methoxy-3-(3-oxo-3-(4-(5-(trifluoromethyl)thiazol-2-yl)piperazin-1-yl)propoxy)propan-2-yl)amino)-4-(trifluoromethyl)pyridazin-3(2H)-one] cannot be ordered by IC50: less than 100 nM for the first, less than 100 nM for the second.

First: O=C(CCOC[C@@H](Nc1cn[nH]c(=O)c1C(F)(F)F)C1CCNCC1)N1CCN(c2ncc(C(F)(F)F)cn2)CC1 [Example 653, (S)-5-((2-(3-Oxo-3-(4-(5-(trifluoromethyl)pyrimidin-2-yl)piperazin-1-yl)propoxy)-1-(piperidin-4-yl)ethyl)amino)-4-(trifluoromethyl)pyridazin-3(2H)-one]
Second: COC[C@H](COCCC(=O)N1CCN(c2ncc(Cl)cn2)CC1)Nc1cn[nH]c(=O)c1C(F)(F)F [Example 557, 5-[[(2R)-1-[3-[4-(5-Chloropyrimidin-2-yl)piperazin-1-yl]-3-oxopropoxy]-3-methoxypropan-2-yl]amino]-4-(trifluoromethyl)-2,3-dihydropyridazin-3-one]
The IC50 of the first is higher: no less than 1000 nM for the first, less than 100 nM for the second.

N#Cc1ccc(N2CCN(C(=O)C[C@@H](N)COC[C@@H]3CCCN3c3cn[nH]c(=O)c3C(F)(F)F)CC2)nc1 [Example 145A, 6-[4-[(3R)-3-amino-4-[[(2S)-1-[6-oxo-5-(trifluoromethyl)-1,6-dihydropyridazin-4-yl]pyrrolidin-2-yl]methoxy]butanoyl]piperazin-1-yl]pyridine-3-carbonitrile; formic acid] and Cc1c(N2CCC[C@H]2COCCC(=O)N2CCN(c3ccc(C#N)cn3)CC2)cn[nH]c1=O [Example 480, (S)-6-(4-(3-((1-(5-Methyl-6-oxo-1,6-dihydropyridazin-4-yl)pyrrolidin-2-yl)methoxy)propanoyl)piperazin-1-yl)nicotinonitrile] cannot be ordered by IC50: less than 100 nM for the first, less than 100 nM for the second.

CC(=O)N1CCN(CCOc2cccc3c2CN(c2cn[nH]c(=O)c2C(F)(F)F)C3)CC1 [Example 228, 5-(4-(2-(4-Acetylpiperazin-1-yl)ethoxy)isoindolin-2-yl)-4-(trifluoromethyl)pyridazin-3(2H)-one] and NCCOc1cccc2c1CN(c1cn[nH]c(=O)c1C(F)(F)F)C2 [Example 209, 5-(4-(2-Aminoethoxy)isoindolin-2-yl)-4-(trifluoromethyl)pyridazin-3(2H)-one] cannot be ordered by IC50: less than 100 nM for the first, less than 100 nM for the second.

O=C(C[C@H]1CC[C@H](COc2cn[nH]c(=O)c2C(F)(F)F)O1)N1CCN(c2ncc(Cl)cn2)CC1 (single isomer, unassigned) [Example 565 Isomer B] and N#Cc1ccc(N2CCN(C(=O)C[C@H]3CCC[C@H](COc4cn[nH]c(=O)c4C(F)(F)F)O3)CC2)nc1 (single isomer, unassigned) [Example 583 Isomer B] cannot be ordered by IC50: 100 to 1000 nM for the first, no less than 1000 nM for the second.

O=C(CCNC[C@@H]1c2ccccc2CN1c1cn[nH]c(=O)c1C(F)(F)F)N1CCN(c2ncc(C(F)(F)F)cn2)CC1 [Example 433, (S)-5-(1-(((3-Oxo-3-(4-(5-(trifluoromethyl)pyrimidin-2-yl)piperazin-1-yl)propyl)amino)methyl)isoindolin-2-yl)-4-(trifluoromethyl)pyridazin-3(2H)-one] and N#Cc1ccc(N2CCN(C(=O)CCNC[C@@H]3c4ccccc4CN3c3cn[nH]c(=O)c3C(F)(F)F)CC2)nc1 [Example 146A, 6-[4-[3-([[(1S)-2-[6-oxo-5-(trifluoromethyl)-1,6-dihydropyridazin-4-yl]-2,3-dihydro-1H-isoindol-1-yl]methyl]amino)propanoyl]piperazin-1-yl]pyridine-3-carbonitrile] cannot be ordered by IC50: less than 100 nM for the first, less than 100 nM for the second.

CC(O)c1cccc2c1CN(c1cn[nH]c(=O)c1C(F)(F)F)C2 (stereo not shown) [Example 278, 5-(4-(1-Hydroxyethyl)isoindolin-2-yl)-4-(trifluoromethyl)pyridazin-3(2H)-one] and NC1CCCN(c2cccc3c2CN(c2cn[nH]c(=O)c2C(F)(F)F)C3)C1 (stereo not shown) [Example 301, 5-(4-(3-Aminopiperidin-1-yl)isoindolin-2-yl)-4-(trifluoromethyl)pyridazin-3(2H)-one] fall in the same range of IC50: 100 to 1000 nM for the first, 100 to 1000 nM for the second.

COc1cc(F)cc2c1CN(c1cn[nH]c(=O)c1C(F)(F)F)C2 [Example 274, 5-(6-Fluoro-4-methoxyisoindolin-2-yl)-4-(trifluoromethyl)pyridazin-3(2H)-one] and COc1ccc2c(n1)CN(c1cn[nH]c(=O)c1C(F)(F)F)C2 [Example 303, 5-(2-Methoxy-5,7-dihydro-6H-pyrrolo[3,4-b]pyridin-6-yl)-4-(trifluoromethyl)pyridazin-3(2H)-one] cannot be ordered by IC50: less than 100 nM for the first, less than 100 nM for the second.

Going from O=C(c1cccc(OC[C@H]2c3ccccc3CN2c2cn[nH]c(=O)c2C(F)(F)F)c1)N1CCn2c(nnc2C(F)(F)F)C1 [Example 372, (R)-4-(Trifluoromethyl)-5-(1-((3-(3-(trifluoromethyl)-5,6,7,8-tetrahydro-[1,2,4]triazolo[4,3-a]pyrazine-7-carbonyl)phenoxy)methyl)isoindolin-2-yl)pyridazin-3(2H)-one] to CC(=O)N1CCN(C(=O)c2cccc(OC[C@@H]3c4ccccc4CN3c3cn[nH]c(=O)c3C(F)(F)F)c2)CC1 [Example 407, (S)-5-(1-((3-(4-Acetylpiperazine-1-carbonyl)phenoxy)methyl)isoindolin-2-yl)-4-(trifluoromethyl)pyridazin-3(2H)-one], the IC50 falls from no less than 1000 nM to less than 100 nM.

Going from O=c1[nH]ncc(N2Cc3cccc(OCc4ccncc4)c3C2)c1C(F)(F)F [Example 196, 5-(4-(Pyridin-4-ylmethoxy)isoindolin-2-yl)-4-(trifluoromethyl)pyridazin-3(2H)-one] to O=c1[nH]ncc(N2Cc3cccc(OCCO)c3C2)c1C1CC1 [Example 186, 4-Cyclopropyl-5-(4-(2-hydroxyethoxy)isoindolin-2-yl)pyridazin-3(2H)-one], the IC50 rises from less than 100 nM to no less than 1000 nM. The first is the more potent here.

COc1ccc2c(c1)CN(c1cn[nH]c(=O)c1C)C2 [Example 173, 5-(5-Methoxyisoindolin-2-yl)-4-methylpyridazin-3(2H)-one] and CC(CC(=O)N1CCN(c2ccc(C#N)cn2)CC1)OC[C@@H](C)Oc1cn[nH]c(=O)c1C(F)(F)F (stereo partly drawn) [Example 569, 6-(4-[3-[(2R)-2-[[6-Oxo-5-(trifluoromethyl)-1,6-dihydropyridazin-4-yl]oxy]propoxy]butanoyl]piperazin-1-yl)pyridine-3-carbonitrile] fall in the same range of IC50: 100 to 1000 nM for the first, 100 to 1000 nM for the second.

C[C@@H](COCCC(=O)N1CCN(c2ncc(C(F)(F)F)s2)CC1)Oc1cn[nH]c(=O)c1C(F)(F)F [Example 708, (S)-5-((1-(3-Oxo-3-(4-(5-(trifluoromethyl)thiazol-2-yl)piperazin-1-yl)propoxy)propan-2-yl)oxy)-4-(trifluoromethyl)pyridazin-3(2H)-one] and COC[C@@H](COCCC(=O)N1CCN(c2cnc(Cl)cn2)CC1)Oc1cn[nH]c(=O)c1C(F)(F)F [Example 696, (S)-5-((1-(3-(4-(5-Chloropyrazin-2-yl)piperazin-1-yl)-3-oxopropoxy)-3-methoxypropan-2-yl)oxy)-4-(trifluoromethyl)pyridazin-3(2H)-one] cannot be ordered by IC50: less than 100 nM for the first, less than 100 nM for the second.

With N#Cc1ccc(N2C[C@H]3C[C@@H]2CN3C(=O)CCOC[C@@H]2CCCN2c2cn[nH]c(=O)c2C(F)(F)F)nc1 [Example 112B, 6-[(1R,4R)-5-(3-(((S)-1-(6-oxo-5-(trifluoromethyl)-1,6-dihydropyridazin-4-yl)pyrrolidin-2-yl)methoxy)propanoyl)-2,5-diaza-bicyclo[2.2.1]heptan-2-yl)nicotinonitrile] the IC50 was no less than 1000 nM.

Reference: patent US10550105B2 (Ribon Therapeutics Inc., priority 2018, dated 2020)
